From patent US10273240B2, “Cortistatin analogues, syntheses, and uses thereof” (President and Fellows of Harvard College, priority 2015, dated 2019) come the findings set out here.

Where two headings read alike, the source gives them in different places. Bounds are passed on as bounds.

One data set has as its system K562. The data set is described as follows: Cell growth assay, K562. The format is cell-based. As to conditions: Homo sapiens. On the procedure: All media was supplemented with 100 U/mL penicillin and 100 μg/mL streptomycin. Human cancer cell lines were grown in the following media: MV4; 11, K562, MOLM-14 in RPMI-1640, 10% FBS; SKNO-1 in RPMI-1640, 10% FBS, and 10 ng/mL GM-CSF; MV4;11 and K562 were from ATCC. SKNO-1 was from DSMZ.
(§1) Cell Culture. All media was supplemented with 100 U/mL penicillin and 100 μg/mL streptomycin. Human cancer cell lines were grown in the following media: MV4; 11, RS4; 11, K562, HEL, MOLM-14, MEG-01 in RPMI-1640, 10% FBS; SET-2 in RPMI-1640, 20% FBS; UKE-1 in RPMI-1640, 10% FBS, 10% horse serum and 1 μM hydrocortisone; SKNO-1 and TF-1 in RPMI-1640, 10% FBS, and 10 or 2 ng/mL GM-CSF, respectively; HaCaT in DMEM, 10% FBS; and HCT116 in McCoy's 5 A, 10% FBS (proliferation assay) or DMEM, 10% FBS (gene expression study). HepG2, MV4;11, RS4;11, MEG-01, TF-1, HCT116 and K562 were from ATCC. SKNO-1 was from DSMZ. HEL, UKE-1, and SET-2 were provided by Ross L. Levine and HaCaT, MV4;11-mCLP, and MOLM-14 by Van Wilson, Andrew L. Kung, and Scott A. Armstrong, respectively. MOLM-14 cells were authenticated by STR profiling and flow cytometry and all cell lines were routinely tested and found to be negative for mycoplasma.

The next data set concerns SET-2. The data set is described as follows: Cell growth assay, SET-2. As to conditions: Homo sapiens. The format is cell-based. How it is done: as §1
The test system of a further data set is TF-1. The data set is described as follows: Cell growth assay, TF-1. The format is cell-based. The note with it: Homo sapiens, TF-1, 240 h; CA, after 10 days; read-out: Mean GI50 (nM), TF-1. How it is done:
as §1

The target of data set [1] is T1, CDK9 in MOLM-14 cell lysate (Homo sapiens, UniProt P50750).
T1 construct: endogenous in cells; host or cells: MOLM-14 cell lysate
T1 sequence (P50750 whole entry): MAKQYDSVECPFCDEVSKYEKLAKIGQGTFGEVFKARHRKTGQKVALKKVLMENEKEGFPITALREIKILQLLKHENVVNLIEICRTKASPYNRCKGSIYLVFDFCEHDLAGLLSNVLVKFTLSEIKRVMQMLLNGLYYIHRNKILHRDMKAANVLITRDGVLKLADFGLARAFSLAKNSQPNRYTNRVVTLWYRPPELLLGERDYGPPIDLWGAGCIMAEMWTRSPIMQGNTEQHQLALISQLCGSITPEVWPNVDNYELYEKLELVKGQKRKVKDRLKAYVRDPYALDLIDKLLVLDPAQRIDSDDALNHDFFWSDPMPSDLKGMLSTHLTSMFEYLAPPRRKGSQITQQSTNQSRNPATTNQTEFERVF
T1 sequence (O60563 whole entry partner): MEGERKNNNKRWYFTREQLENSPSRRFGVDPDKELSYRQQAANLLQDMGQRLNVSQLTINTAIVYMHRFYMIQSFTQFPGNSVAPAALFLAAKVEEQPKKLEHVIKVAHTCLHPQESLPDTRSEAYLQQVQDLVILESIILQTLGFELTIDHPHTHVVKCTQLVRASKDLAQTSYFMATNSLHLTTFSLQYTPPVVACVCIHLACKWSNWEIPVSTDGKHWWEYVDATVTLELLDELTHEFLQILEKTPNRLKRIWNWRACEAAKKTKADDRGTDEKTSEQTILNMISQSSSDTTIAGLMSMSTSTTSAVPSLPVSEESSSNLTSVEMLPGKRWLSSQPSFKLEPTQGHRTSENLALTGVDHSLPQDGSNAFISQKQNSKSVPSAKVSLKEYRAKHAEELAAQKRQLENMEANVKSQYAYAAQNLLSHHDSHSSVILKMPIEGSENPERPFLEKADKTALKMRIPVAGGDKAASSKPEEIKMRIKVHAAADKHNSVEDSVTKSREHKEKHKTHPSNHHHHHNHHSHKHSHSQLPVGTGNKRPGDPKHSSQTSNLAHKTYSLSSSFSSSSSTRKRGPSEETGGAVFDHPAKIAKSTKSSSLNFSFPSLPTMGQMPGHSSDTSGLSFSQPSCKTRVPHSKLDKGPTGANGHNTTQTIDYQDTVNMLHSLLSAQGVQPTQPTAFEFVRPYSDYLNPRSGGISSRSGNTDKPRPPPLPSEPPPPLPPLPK
Nature of the data set: Native kinase capture immunoblot, CDK9. The format is binding. On the procedure:
(§2) Native Kinase Capture Immunoblot and Native Kinome-Wide Profiling. […] Experiment was performed twice with one immunoblot shown.
(A western blot detects proteins with antibodies after separation by electrophoresis.)

In data set [2] the target is T2, ROCK2 in MOLM-14 cell lysate (Homo sapiens, UniProt O75116).
T2 construct: endogenous in cells; host or cells: MOLM-14 cell lysate
T2 sequence (O75116 whole entry): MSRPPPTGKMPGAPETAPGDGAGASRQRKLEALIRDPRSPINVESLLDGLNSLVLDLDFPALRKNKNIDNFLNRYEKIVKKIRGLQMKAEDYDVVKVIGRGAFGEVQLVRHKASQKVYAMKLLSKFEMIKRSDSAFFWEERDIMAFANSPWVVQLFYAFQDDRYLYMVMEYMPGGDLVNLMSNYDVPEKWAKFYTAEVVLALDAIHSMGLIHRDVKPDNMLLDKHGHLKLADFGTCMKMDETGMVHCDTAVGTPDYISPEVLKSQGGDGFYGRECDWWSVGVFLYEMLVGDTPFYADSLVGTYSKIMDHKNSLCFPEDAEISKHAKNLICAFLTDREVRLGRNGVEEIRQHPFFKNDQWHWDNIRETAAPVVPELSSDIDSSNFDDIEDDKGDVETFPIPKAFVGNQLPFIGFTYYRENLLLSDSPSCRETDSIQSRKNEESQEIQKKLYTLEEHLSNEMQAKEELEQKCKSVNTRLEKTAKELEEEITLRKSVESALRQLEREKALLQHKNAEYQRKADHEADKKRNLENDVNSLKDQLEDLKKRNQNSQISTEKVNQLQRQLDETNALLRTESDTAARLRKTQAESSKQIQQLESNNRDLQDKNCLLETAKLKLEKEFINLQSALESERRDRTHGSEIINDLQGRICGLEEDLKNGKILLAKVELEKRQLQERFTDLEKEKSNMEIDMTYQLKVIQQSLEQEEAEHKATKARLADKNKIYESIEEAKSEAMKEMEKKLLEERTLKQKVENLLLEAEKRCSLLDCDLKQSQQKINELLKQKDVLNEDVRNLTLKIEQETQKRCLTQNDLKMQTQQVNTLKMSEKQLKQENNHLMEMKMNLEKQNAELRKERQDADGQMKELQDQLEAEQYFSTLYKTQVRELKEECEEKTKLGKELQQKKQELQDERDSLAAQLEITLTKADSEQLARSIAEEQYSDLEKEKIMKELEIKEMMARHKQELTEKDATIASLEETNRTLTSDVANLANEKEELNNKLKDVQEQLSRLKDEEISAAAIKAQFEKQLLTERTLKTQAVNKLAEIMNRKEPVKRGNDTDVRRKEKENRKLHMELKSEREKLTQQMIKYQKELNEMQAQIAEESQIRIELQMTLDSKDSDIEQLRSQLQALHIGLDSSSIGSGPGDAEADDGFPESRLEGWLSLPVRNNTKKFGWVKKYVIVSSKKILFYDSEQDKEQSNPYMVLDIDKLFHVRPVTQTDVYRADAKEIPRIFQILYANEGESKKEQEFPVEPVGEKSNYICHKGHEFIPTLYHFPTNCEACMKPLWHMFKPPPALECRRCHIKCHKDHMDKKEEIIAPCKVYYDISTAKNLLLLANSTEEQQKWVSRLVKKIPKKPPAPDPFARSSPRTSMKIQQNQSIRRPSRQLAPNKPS
Nature of the data set: Native kinase capture immunoblot, ROCK2. The format is binding. How it is done:
as §2

Data set [3] relates to luciferase-expressing MV4;11 cells. The data set is described as follows: MV4;11 xenotransplant model of disseminated human AML. The note with it: IP once daily for 15 days, NSG mice. The format is in vivo. How it is done: (§3) In Vivo Studies. Studies were performed at Charles River Laboratories (CRL) and Dana Farber Cancer Institute (DFCI) where indicated and approved by Harvard University and each institution's respective animal care and use committee. For pharmacokinetic studies, serial blood samples from 7 week old male CD-1 mice (n=3 per timepoint) were collected (no blinding) into K2EDTA tubes, centrifuged, transferred into 96-well plates (matrix tubes), stored at −20° C., and analysed by HPLC/MS/MS (in-life performed at CRL). Study size was determined by the need for three blood samples per timepoint with three blood samples collected per mouse. The MV4; 11 xenograft model were performed as previously described (Etchin, J. et al. Antileukemic activity of nuclear export inhibitors that spare normal hematopoietic cells. Leukemia 27, 66-74 (2013); in-life performed at DFCI) Two million MV4;11-mCLP cells were injected into the tail vein of 7-week-old female NOD-SCID-IL2Rcγ^null (NSG) mice (The Jackson Laboratory) and tumor burden was assessed by bioluminescence imaging (BLI) using an IVIS Spectrum system (Caliper Life Sciences). […] After 30 days, blood counts were obtained (Hemavet 950 F, Drew Scientific) and spleen, femur, and peripheral blood cells were collected and analysed by flow cytometry (LSR Fortessa, BD Biosciences) from 3 mice/group. […]

Data set [4] is described as follows: Pharmacokinetic study in mice. The format is in vivo. The note with it: once-daily intraperitoneal (IP) dosing. On the procedure: as §3
For data set [5], the system named is STAT1 S727 phosphorylation in NK cells. Nature of the data set: STAT1 pS727 inhibition in NK cells in vivo. As to conditions: C57BL/6 mice, NK cells from spleen.

Consider `CN(C)[C@H]1C[C@@]23CC[C@@]4(O2)C(=CC[C@@]2(C)[C@@H](c5ccc6ccncc6c5)CC[C@H]24)C=C3[C@@H](O)[C@@H]1O` [CA, cortistatin A], for which the GI50 in the data set with K562 (K562, 240 h, CA, after 10 days, read-out: Mean GI50 (nM), K562) is more than 1000 nM; in the data set on K562 (K562, 240 h, read-out: K562 GI50 day 10), more than 1000 nM; in the data set with K562 (K562, Table 5, read-out: GI50 (nM), K562), more than 1000 nM; with SET-2 (SET-2, 240 h, CA, after 10 days, read-out: Mean GI50 (nM), SET-2), 4 nM; in the data set with SET-2 (SET-2, Table 5, read-out: GI50 (nM), SET2), 4 nM; with TF-1 it was 350 nM. In addition, the “binding of CDK9 (no binding at up to)” value in data set [1] is more than 2500 nM. In addition, the “binding of ROCK2 (no binding up to)” value in data set [2] is on record as more than 2500 nM. Also, the “disease progression (bioluminescence, spleen weight, leukemia cell burden, survival)” value in data set [3] is reported as “dose-dependent reduction in disease progression”. Moreover, the “median extension in survival” value in data set [3] came out at 29.5 days. The pharmacokinetic properties entry in data set [4] is “acceptable pharmacokinetic properties”. For the same compound, in data set [5], the “STAT1 S727 phosphorylation in NK cells” value is on record as “dose-dependent reduction”.

Usually GI50 stands for the concentration at which growth is held to half of that of the control.
